The term IC50 denotes the concentration that gives 50% inhibition.

We go through 23 molecules from patent publication US7939552B2, “Benzyloxypropylamine derivative” (Nippon Zoki Pharmaceutical Co., Ltd., priority 2005, dated 2011).

Counter-ions that a name gives are not always drawn.

For the assay, the target named is T1, human NK1 receptor (Homo sapiens, UniProt P25103).
T1 construct: expressed in transfected cells; host or cells: CHO cells (hNK1-CHO)
The assay is described as follows: Human NK1 receptor binding assay (3H-Sar9-SP, hNK1-CHO cells). As to conditions: room temperature 60 minutes. The method, then: A supernatant liquid was removed from an hNK1-CHO cell incubation flask in a confluent state, trypsin (0.25%)-EDTA (1 mmol/L) (Gibco) was added thereto and the cells were exfoliated and recovered. After they were washed with a buffer A (pH 7.5; 50 mmol/L Tris hydrochloride 50 mmol/L, 150 mmol/L NaCl and 0.02% BSA) for one time (at […] for 5 minutes), cell numbers were adjusted and re-floated on a buffer for assay {a buffer A to which 40 μg/mL bacitracin (Sigma), 4 μg/mL leupeptin (Sigma), 4 μg/mL chymostatin (Sigma) and 4 μg/mL phosphoramidon (Sigma) were added}. The hNK1-CHO cells (100 μL) were placed in a tube (TPX-12, Maruemu) in which 300 μL of the buffer for assay was charged so as to make cells 10^5 per tube, 50 μL of a hot solution (^3H-Sar^9-SP, final concentration: […]) and 50 μL of a substance to be tested were added (a system of 500 μL), stirred and made to react at room temperature for 60 minutes. After completion of the reaction, it was filtered through a GF/B filter (25 mm diameter, Whatman) which was previously dipped in 0.1% polyethyleneimine p-70 (Wako Pure Chemical), washed with the buffer A (4 mL each for three times), placed in a vial and dried at 60° C. for one night. After drying, 10 mL of a scintillator (AL-1, toluene base, Dojindo) was added thereto and dpm was measured by a liquid scintillation counter (for 5 minutes/vial).
With regard to a nonspecific binding, it was defined as the dpm when 10 μmol/L of the substance P was added instead of the substance to be tested. The experiment was conducted in duplicate and at least three experiments were repeated. IC50 value was calculated using a probit method (statistic library II, Yukms).

T1 sequence (P25103 whole entry): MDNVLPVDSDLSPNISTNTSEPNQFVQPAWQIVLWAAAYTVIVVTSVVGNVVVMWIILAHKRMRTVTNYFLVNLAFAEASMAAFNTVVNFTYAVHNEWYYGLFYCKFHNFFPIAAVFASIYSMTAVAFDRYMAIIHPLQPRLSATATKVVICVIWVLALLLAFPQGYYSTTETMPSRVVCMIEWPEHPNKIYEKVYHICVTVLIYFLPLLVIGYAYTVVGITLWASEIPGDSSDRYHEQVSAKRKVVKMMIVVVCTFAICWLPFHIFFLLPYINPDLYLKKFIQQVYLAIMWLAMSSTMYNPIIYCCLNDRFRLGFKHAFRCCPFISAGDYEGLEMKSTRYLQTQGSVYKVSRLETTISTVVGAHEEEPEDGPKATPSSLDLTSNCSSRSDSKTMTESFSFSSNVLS

Take `CN(CC(COCc1cc(C(F)(F)F)cc(C(F)(F)F)c1)c1ccc(F)cc1)C(=O)c1ccncc1` (centres unmarked) [Compound 98, N-[3-(3,5-Bis(trifluoromethyl)benzyloxy)-2-(4-fluorophenyl)propyl]-N-methylisonicotinamide]: the IC50 came out at 27 nM. `CN(CC(COCc1cc(C(F)(F)F)cc(C(F)(F)F)c1)c1ccccc1)C(=O)CCCCN` (centres unmarked) [Compound 106, 5-Aminopentanoic acid [3-(3,5-bis(trifluoromethyl)benzyloxy)-2-phenylpropyl]methylamide hydrochloride] yielded a half-inhibitory concentration (IC50) of 30.3 nM. Next, `O=C(NCC(COCc1cc(C(F)(F)F)cc(C(F)(F)F)c1)c1ccccc1)NC1CCNCC1` (centres unmarked) [Compound 86, 1-[3-(3,5-Bis(trifluoromethyl)benzyloxy)-2-phenylpropyl]-3-piperidin-4-ylurea hydrochloride]: 6 nM; `C[n+]1ccc(C(=O)NCC(COCc2cc(C(F)(F)F)cc(C(F)(F)F)c2)c2ccccc2)cc1` (centres unmarked) [Compound 26, 4-[3-(3,5-Bis(trifluoromethyl)benzyloxy)-2-phenylpropylcarbamoyl]-1-methylpyridinium iodide]: 5.9 nM; `CN(CC(COCc1cc(C(F)(F)F)cc(C(F)(F)F)c1)c1ccccc1)C(=O)CCN` (centres unmarked) [Compound 102, N-[3-(3,5-Bis(trifluoromethyl)benzyloxy)-2-phenylpropyl]-N-methyl-3-aminopropionamide hydrochloride]: 35.5 nM.

In turn, `NCCC(=O)NCC(COCc1cc(C(F)(F)F)cc(C(F)(F)F)c1)c1ccccc1` (centres unmarked) [Compound 74, 3-Amino-N-[3-(3,5-bis(trifluoromethyl)benzyloxy)-2-phenylpropyl]propionamide hydrochloride] gave an IC50 of 33.6 nM.

For “N-[3-(3,5-Bis(trifluoromethyl)benzyloxy)-2-(4-fluorophenyl)propyl]-N-methylpiperidine-4-carboxamide hydrochloride [Compound 97]”, the IC50 came to 20.3 nM. As for `CN(CC(COCc1cc(C(F)(F)F)cc(C(F)(F)F)c1)c1ccccc1)C(=O)C1CCNCC1` (centres unmarked) [Compound 93, N-[3-(3,5-Bis(trifluoromethyl)benzyloxy)-2-phenylpropyl]-N-methylpiperidine-4-carboxamide hydrochloride], the half-maximal inhibitory concentration (IC50) is 42.2 nM. The value for `O=C(C=Cc1ccc[n+]([O-])c1)NCC(COCc1cc(C(F)(F)F)cc(C(F)(F)F)c1)c1ccccc1` (centres unmarked) [Compound 54, N-[3-(3,5-Bis(trifluoromethyl)benzyloxy)-2-phenylpropyl]-3-(1-oxypyridin-3-yl)acrylamide] was 8.5 nM; that for `NCCC(=O)NCC(COCc1cc(C(F)(F)F)cc(C(F)(F)F)c1)c1ccc(F)cc1` (centres unmarked) [Compound 76, 3-Amino-N-[3-(3,5-bis(trifluoromethyl)benzyloxy)-2-(4-fluorophenyl)propyl]propionamide hydrochloride] was 21 nM. Next, `CN1CCC(C(=O)N(C)CC(COCc2cc(C(F)(F)F)cc(C(F)(F)F)c2)c2ccccc2)CC1` (centres unmarked) [Compound 96, N-[3-(3,5-Bis(trifluoromethyl)benzyloxy)-2-phenylpropyl]-N-methyl-1-methylpiperidine-4-carboxamide hydrochloride]: 28.5 nM; `O=C(CN1CCC(C(=O)O)CC1)NCC(COCc1cc(C(F)(F)F)cc(C(F)(F)F)c1)c1ccccc1` (centres unmarked) [Compound 90, 1-{[3-(3,5-Bis(trifluoromethyl)benzyloxy)-2-phenylpropylcarbamoyl]methyl}piperidine-4-carboxylic acid]: 44 nM; `O=C(CN1CCC(N2CCCCC2)CC1)NCC(COCc1cc(C(F)(F)F)cc(C(F)(F)F)c1)c1ccccc1` (centres unmarked) [Compound 91, N-[3-(3,5-Bis(trifluoromethyl)benzyloxy)-2-phenylpropyl]-2-[1,4′]bipiperidinyl-1′-ylacetamide dihydrochloride]: 43.5 nM. The value for `CN(CC(COCc1cc(C(F)(F)F)cc(C(F)(F)F)c1)c1ccccc1)C(=O)c1cc[n+]([O-])cc1` (centres unmarked) [Compound 99, N-[3-(3,5-Bis(trifluoromethyl)benzyloxy)-2-phenylpropyl]-N-methyl-1-oxyisonicotinamide] was 23.8 nM; that for `O=C(NCC(COCc1cc(C(F)(F)F)cc(C(F)(F)F)c1)c1ccc(F)cc1)c1cc[n+]([O-])cc1` (single isomer, unassigned; (-)) [(−)-Compound 21] was 1.5 nM; that for `NC1CCC(C(=O)NCC(COCc2cc(C(F)(F)F)cc(C(F)(F)F)c2)c2ccccc2)CC1` (centres unmarked) [Compound 88, 4-Aminocyclohexanecarboxylic acid [3-(3,5-bis(trifluoromethyl)benzyloxy)-2-phenylpropyl]amide hydrochloride] was 8.6 nM.

Consider `CN(CC(COCc1cc(C(F)(F)F)cc(C(F)(F)F)c1)c1ccc(F)cc1)C(=O)c1ccnc(O)c1` (centres unmarked) [Compound 100, N-[3-(3,5-Bis(trifluoromethyl)benzyloxy)-2-(4-fluorophenyl)propyl]-2-hydroxy-N-methylisonicotinamide], for which the IC50 came to 11.9 nM. The value for `NCCCCC(=O)NCC(COCc1cc(C(F)(F)F)cc(C(F)(F)F)c1)c1ccccc1` (centres unmarked) [Compound 78, N-[3-(3,5-Bis(trifluoromethyl)benzyloxy)-2-phenylpropyl]-5-aminopentanoicamide hydrochloride] was 19 nM. Next, `CN(CC(COCc1cc(C(F)(F)F)cc(C(F)(F)F)c1)c1ccc(F)cc1)C(=O)C1CCNCC1` (centres unmarked) [Compound 95, N-[3-(3,5-Bis(trifluoromethyl)benzyloxy)-2-(4-fluorophenyl)propyl]-N-methylpiperidine-4-carboxamide hydrochloride]: 15.4 nM. The value for `O=C(Cc1ccc[n+]([O-])c1)NCC(COCc1cc(C(F)(F)F)cc(C(F)(F)F)c1)c1ccccc1` (centres unmarked) [Compound 41, N-[3-(3,5-Bis(trifluoromethyl)benzyloxy)-2-phenylpropyl]-2-(1-oxypyridin-3-yl)acetamide] was 9.2 nM; that for `CN(CC(COCc1cc(C(F)(F)F)cc(C(F)(F)F)c1)c1ccc(F)cc1)C(=O)CCN` (centres unmarked) [Compound 104, 3-Amino-N-[3-(3,5-bis(trifluoromethyl)benzyloxy)-2-(4-fluorophenyl)propyl]-N-methylpropionamide hydrochloride] was 6.5 nM. Regarding `O=C(NCC(COCc1cc(C(F)(F)F)cc(C(F)(F)F)c1)c1ccc(F)cc1)c1cc[n+]([O-])cc1` (single isomer, unassigned; (+)) [(+)-Compound 21], the 50% inhibitory concentration (IC50) amounted to 9 nM. Next, `O=C(O)CN1CCC(C(=O)NCC(COCc2cc(C(F)(F)F)cc(C(F)(F)F)c2)c2ccccc2)CC1` (centres unmarked) [Compound 80, {4-[3-(3,5-Bis(trifluoromethyl)benzyloxy)-2-phenylpropylcarbamoyl]piperidin-1-yl}acetic acid hydrochloride]: 14.7 nM.
